Where two headings read alike, the source gives them in different places.

One experiment deals with T1, human TYK2 (Homo sapiens, UniProt P29597).
T1 construct: catalytic domain (amino acids 871-1187; catalog number 08-147); purchased Carna Biosciences 08-147
T1 sequence (P29597 871-1187): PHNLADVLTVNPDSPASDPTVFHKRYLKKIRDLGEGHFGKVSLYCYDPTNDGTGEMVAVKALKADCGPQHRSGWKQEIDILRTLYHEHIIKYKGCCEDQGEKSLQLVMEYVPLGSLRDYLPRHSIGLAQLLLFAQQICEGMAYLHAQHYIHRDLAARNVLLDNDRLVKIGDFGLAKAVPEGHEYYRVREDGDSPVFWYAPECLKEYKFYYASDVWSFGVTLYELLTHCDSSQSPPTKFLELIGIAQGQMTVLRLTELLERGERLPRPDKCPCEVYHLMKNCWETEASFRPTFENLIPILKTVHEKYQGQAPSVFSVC
The experiment is described as follows: TYK2 inhibition assay. The class given is biochemical. Conditions: recombinant human TYK2 catalytic domain, polyGT substrate. The method, boiled down: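 Radiometric kinase reaction run 90 min at 30 °C, stopped with phosphoric acid, washed and scintillation-counted.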

The subject of experiment [1] is pSTAT1(2)-luciferase reporter in HeLa cells triggered with human OSM. The experiment is described as follows: JAK-STAT signalling assay. The class given is cell-based. Conditions: read-out: JAK-STAT IC50. The method, boiled down:
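HeLa cells transiently co-transfected with pSTAT1(2)-luciferase and LacZ control reporter, preincubated with compound 60 min, then stimulated with human OSM (33 ng/mL final) overnight at 37 °C. Luciferase read by luminescence; percent inhibition from vehicle and no-trigger controls, EC50 from dose-response.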

The target of another experiment is T2, human JAK3 (Homo sapiens, UniProt P52333).
T2 construct: catalytic domain (amino acids 781-1124; catalog number PV3855); purchased Invitrogen PV3855
T2 sequence (P52333 781-1124): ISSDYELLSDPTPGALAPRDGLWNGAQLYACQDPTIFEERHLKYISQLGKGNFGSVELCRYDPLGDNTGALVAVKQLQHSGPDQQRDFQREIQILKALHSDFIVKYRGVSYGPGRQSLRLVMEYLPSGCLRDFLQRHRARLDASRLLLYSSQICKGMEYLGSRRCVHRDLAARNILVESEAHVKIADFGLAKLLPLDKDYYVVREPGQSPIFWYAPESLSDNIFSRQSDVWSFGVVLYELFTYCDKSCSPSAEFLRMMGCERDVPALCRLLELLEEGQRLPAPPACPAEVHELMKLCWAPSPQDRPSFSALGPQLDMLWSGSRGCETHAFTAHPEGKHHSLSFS
As to the kind of experiment: JAK3 inhibition assay. The class given is biochemical. As to conditions: recombinant human JAK3 catalytic domain; polyGT substrate. Summed up:
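Radiometric kinase assay: 0.5 ng JAK3 with 2.5 μg polyGT in Tris pH 7.5/MgCl2 buffer, 1 μM ATP plus 0.25 μCi 33P-γ-ATP, 1% DMSO, 45 min at 30 °C, stopped with phosphoric acid.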

A further experiment addresses T3, human JAK1 (Homo sapiens, UniProt P23458).
T3 construct: catalytic domain, amino acids 866-1154; catalog number PV4774; purchased Invitrogen PV4774
As to the kind of experiment: JAK1 inhibition assay (polyGT substrate / Ulight-JAK1 peptide). The class given is biochemical. As to conditions: recombinant human JAK1 catalytic domain; polyGT or Ulight-JAK1 peptide assay. The method, boiled down: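 Two formats. PolyGT radiometric: 45 min at 30 °C, stopped with phosphoric acid, counted as cpm. Ulight-JAK1 peptide: 60 min at room temperature, stopped with Eu-anti-phosphotyrosine/EDTA, read as RFU. Percent inhibition normalised to vehicle and 10 μM staurosporine.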

The test system of another experiment is CTLL-2 cell line. The experiment is described as follows: CTLL2 viability assay. Format: cell-based. Conditions: Mus musculus, IL-2 dependent CTLL2 viability, 24 h, ATP-lite. From the text:
The protocol describes the methods to analyse the activity of compounds on their ability to sustain the IL2-dependent viability of CTLL2.
Final DMSO concentration was 0.1%.

The next experiment deals with T4, human JAK2 (Homo sapiens, UniProt O60674).
T4 construct: catalytic domain (amino acids 808-1132; catalog number PV4210); GST; purchased Invitrogen PV4210
T4 sequence (O60674 808-1132): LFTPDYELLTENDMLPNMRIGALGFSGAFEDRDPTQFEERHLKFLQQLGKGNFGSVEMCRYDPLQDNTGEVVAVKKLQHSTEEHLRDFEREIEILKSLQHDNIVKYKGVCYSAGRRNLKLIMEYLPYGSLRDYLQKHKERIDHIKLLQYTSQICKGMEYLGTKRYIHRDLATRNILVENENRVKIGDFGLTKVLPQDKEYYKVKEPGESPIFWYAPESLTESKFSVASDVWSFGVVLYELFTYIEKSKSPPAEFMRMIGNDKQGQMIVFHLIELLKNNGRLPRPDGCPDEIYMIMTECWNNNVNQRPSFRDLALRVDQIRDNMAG
As to the kind of experiment: JAK2 inhibition assay (polyGT substrate / Ulight-JAK1 peptide). Format: biochemical. Conditions: recombinant human JAK2 catalytic domain; polyGT or Ulight-JAK1 peptide assay. Summed up:
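Radiometric: 0.025 mU JAK2 with 2.5 μg polyGT, 1 μM ATP plus ^33P-ATP in MOPS pH 7.5 buffer, 1% DMSO, 90 min at 30° C.; filter counting. Alternative TR-FRET format with Ulight-JAK1 peptide, 60 min at room temperature, Eu-anti-phosphotyrosine detection.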

[2] abbreviates: Homo sapiens, HeLa, HeLa cells, pSTAT1(2)-luciferase reporter, human OSM 33 ng/mL.
Setting [3] is: HeLa cells, pSTAT1(2)-luciferase reporter, human OSM 33 ng/mL.

T3 sequence (P23458 866-1154): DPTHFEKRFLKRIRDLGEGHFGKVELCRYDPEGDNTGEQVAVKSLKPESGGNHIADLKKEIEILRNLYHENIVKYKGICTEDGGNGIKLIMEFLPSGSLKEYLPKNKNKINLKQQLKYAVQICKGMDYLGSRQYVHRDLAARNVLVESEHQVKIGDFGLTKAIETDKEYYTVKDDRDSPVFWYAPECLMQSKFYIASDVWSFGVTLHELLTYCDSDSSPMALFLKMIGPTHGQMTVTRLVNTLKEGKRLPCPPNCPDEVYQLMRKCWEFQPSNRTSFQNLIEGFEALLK

Consider `CCc1cc(CNC(=O)NC#N)ccc1N(C)c1cc2c(cn1)ncn2C` [Compound 258, 1-{3-Ethyl-4-[methyl-(1-methyl-1H-imidazo[4,5-c]pyridin-6-yl)-amino]-benzyl}-3-cyano-urea], for which the IC50 at human TYK2 is 101 to 500 nM; in experiment [1] (Homo sapiens, HeLa) it was greater than 1000 nM; at human JAK3, 101 to 500 nM; at human JAK1, 0.01 to 100 nM.
Turning to `CCc1cc(O[C@@H]2CCN(S(C)(=O)=O)C2)ccc1N(C)c1cc2c(cn1)ncn2C` [Compound 259, (R)-N-(2-ethyl-4-(1-(methylsulfonyl)pyrrolidin-3-yloxy)phenyl)-N,1-dimethyl-1H-imidazo[4,5-c]pyridin-6-amine], the IC50 lay within 101 to 500 nM at human TYK2, 501 to 1000 nM in experiment [1] (setting [2]), 501 to 1000 nM on human JAK3 and 0.01 to 100 nM on human JAK1.
In the case of `COc1cc(-c2cnn(C)c2)ncc1N(C)c1cc2c(cn1)ncn2C` [Compound 263, N-(4-methoxy-6-(1-methyl-1H-pyrazol-4-yl)pyridin-3-yl)-N,1-dimethyl-1H-imidazo[4,5-c]pyridin-6-amine], the IC50 on human TYK2 is greater than 1000 nM; in experiment [1] (setting [3]) it was greater than 1000 nM; at human JAK3, greater than 1000 nM; on human JAK1, 501 to 1000 nM.
In the case of `COc1cc(C2CCN(C(=O)CC#N)CC2)ncc1N(C)c1cc2c(cn1)ncn2C` [Compound 265], the IC50 is greater than 1000 nM on human TYK2, greater than 1000 nM in experiment [1] (setting [3]), greater than 1000 nM at human JAK3 and 501 to 1000 nM at human JAK1.
With `CCN(c1cc2c(cn1)ncn2C)c1ccc(C#N)cc1F` [Compound 266, 4-(ethyl(1-methyl-1H-imidazo[4,5-c]pyridin-6-yl)amino)-3-fluorobenzonitrile], the IC50 (on human TYK2; in experiment [1] (setting [2]); on human JAK3; on human JAK1) was greater than 1000 nM each time.
Turning to `CN(c1cc2c(cn1)ncn2C)c1ccc(C#N)cc1F` [Compound 267, 3-fluoro-4-(methyl(1-methyl-1H-imidazo[4,5-c]pyridin-6-yl)amino)benzonitrile], the IC50 is greater than 1000 nM on human TYK2, greater than 1000 nM in experiment [1] (setting [2]), greater than 1000 nM on human JAK3 and 501 to 1000 nM at human JAK1.
Regarding `CCc1cc(CNC(=O)NC)ccc1N(C)c1cc2c(cn1)ncn2C` [Compound 270, 1-(3-ethyl-4-(methyl(1-methyl-1H-imidazo[4,5-c]pyridin-6-yl)amino)benzyl)-3-methylurea], the IC50 is greater than 1000 nM at human TYK2, greater than 1000 nM in experiment [1] (setting [2]), greater than 1000 nM on human JAK3 and 101 to 500 nM at human JAK1.
As for `CCc1cc(OC)ccc1N(C)c1cc2c(cn1)ncn2C` [Compound 271, N-(2-ethyl-4-methoxyphenyl)-N,1-dimethyl-1H-imidazo[4,5-c]pyridin-6-amine], the IC50 on human TYK2 fell in the range of 0.01 to 100 nM; in experiment [1] (setting [2]) it was 1 to 500 nM; on human JAK3, 501 to 1000 nM; on human JAK1, 0.01 to 100 nM.
Consider `CCOc1ccc(N(C)c2cc3c(cn2)ncn3C)c(CC)c1` [Compound 272, N-(4-ethoxy-2-ethylphenyl)-N,1-dimethyl-1H-imidazo[4,5-c]pyridin-6-amine], for which the IC50 is 0.01 to 100 nM at human TYK2, 501 to 1000 nM in experiment [1] (setting [2]), 501 to 1000 nM at human JAK3 and 0.01 to 100 nM at human JAK1.
As for `COc1cc(C2CCN(S(C)(=O)=O)CC2)ncc1N(C)c1cc2c(cn1)ncn2C` [Compound 276], the IC50 on human TYK2 was greater than 1000 nM; in experiment [1] (setting [3]), greater than 1000 nM; on human JAK3, greater than 1000 nM; at human JAK1, 0.01 to 100 nM.
`CN(c1cc2c(cn1)ncn2C)c1ccc(C2CN(S(C)(=O)=O)C2)cc1F` [Compound 277, [2-Fluoro-4-(1-methanesulfonyl-azetidin-3-yl)-phenyl]-methyl-(1-methyl-1H-imidazo[4,5-c]pyridin-6-yl)-amine]: the 50% inhibitory concentration (IC50) on human TYK2 is 501 to 1000 nM; in experiment [1] (setting [3]) it was greater than 1000 nM; at human JAK3, 101 to 500 nM; on human JAK1 it was 0.01 to 100 nM.
As to `COC(=O)NCc1ccc(N(C)c2cc3c(cn2)ncn3C)c(F)c1` [Compound 283, {3-Fluoro-4-[methyl-(1-methyl-1H-imidazo[4,5-c]pyridin-6-yl)-amino]-benzyl}-carbamic acid methyl ester], the IC50 was 101 to 500 nM at human TYK2, greater than 1000 nM in experiment [1] (setting [2]), greater than 1000 nM on human JAK3 and 0.01 to 100 nM on human JAK1.
For `CCc1ccccc1N(CC(F)F)c1cc2c(cn1)ncn2C` [Compound 284, (2,2-Difluoro-ethyl)-(2-ethyl-phenyl)-(1-methyl-1H-imidazo[4,5-c]pyridin-6-yl)-amine], the 50% inhibitory concentration (IC50) was in the range of 0.01 to 100 nM on human TYK2, 501 to 1000 nM in experiment [1] (setting [2]), 101 to 500 nM at human JAK3 and 0.01 to 100 nM on human JAK1.
Take `CN(c1cc2c(cn1)ncn2C)c1ccc(C2CCN(S(C)(=O)=O)CC2)cc1OC(F)F` [Compound 287, N-(2-(Difluoromethoxy)-4-(1-(methylsulfonyl)piperidin-4-yl)phenyl)-N,1-dimethyl-1H-imidazo[4,5-c]pyridin-6-amine]: the IC50 is 0.01 to 100 nM at human TYK2, 1 to 500 nM in experiment [1] (setting [3]), 0.01 to 100 nM on human JAK3 and 0.01 to 100 nM on human JAK1.
Consider `CCc1cc(OCC#N)ccc1N(C)c1cc2c(cn1)ncn2C` [Compound 295, 2-(3-ethyl-4-(methyl(1-methyl-1H-imidazo[4,5-c]pyridin-6-yl)amino)phenoxy)acetonitrile], for which the IC50 fell in the range of 0.01 to 100 nM on human TYK2; 1 to 500 nM in experiment [1] (Homo sapiens, HeLa); 101 to 500 nM on human JAK3; 0.01 to 100 nM on human JAK1.
As to `CN(c1cc2c(cn1)ncn2C)c1ccc(C2CN(CC(F)F)C2)cc1OC(F)F` [Compound 365, {4-[1-(2,2-Difluoro-ethyl)-azetidin-3-yl]-2-difluoromethoxy-phenyl}-methyl-(1-methyl-1H-imidazo[4,5-c]pyridin-6-yl)-amine], the IC50 was greater than 1000 nM in the experiment on CTLL-2 cell line; 501 to 1000 nM on human TYK2; 101 to 500 nM on human JAK3; 0.01 to 100 nM on human JAK1; 101 to 500 nM at human JAK2.
For `CN(c1cc2c(cn1)ncn2C)c1ccc(C2CN(S(=O)(=O)N3CCCCC3)C2)cc1OC(F)F` [Compound 372, {2-Difluoromethoxy-4-[1-(piperidine-1-sulfonyl)-azetidin-3-yl]-phenyl}-methyl-(1-methyl-1H-imidazo[4,5-c]pyridin-6-yl)-amine], the IC50 was greater than 1000 nM in the experiment with CTLL-2 cell line; 101 to 500 nM at human TYK2; 501 to 1000 nM on human JAK3; 0.01 to 100 nM on human JAK1; 101 to 500 nM on human JAK2.
For the compound `CC(C)S(=O)(=O)N1CC(c2ccc(N(C)c3cc4c(cn3)ncn4C)c(OC(F)F)c2)C1` [Compound 373, {2-Difluoromethoxy-4-[1-(propane-2-sulfonyl)-azetidin-3-yl]-phenyl}-methyl-(1-methyl-1H-imidazo[4,5-c]pyridin-6-yl)-amine], the IC50 in the experiment on CTLL-2 cell line is greater than 1000 nM; at human TYK2 it was greater than 1000 nM; at human JAK3, 501 to 1000 nM; on human JAK1, 0.01 to 100 nM; at human JAK2, 101 to 500 nM.
For the compound `CCc1cc(C2CCN(CC#N)CC2)ncc1N(C)c1cc2c(cn1)ncn2C` [Compound 384, {4-Ethyl-5-(methyl-(1-methyl-1H-imidazo[4,5-c]pyridin-6-yl)-amino)-3′,4′,5′,6′-tetrahydro-2′H-(2,4′]bipyridinyl-1′-yl}-acetonitrile], the IC50 in the experiment with CTLL-2 cell line is greater than 1000 nM; on human TYK2, 101 to 500 nM; on human JAK3, greater than 1000 nM; on human JAK1 it was 0.01 to 100 nM; on human JAK2 it was 101 to 500 nM.

As a reminder, the IC50 is the point on the concentration scale where inhibition reaches its midpoint.

For the origin of these results see US20130217664A1, “NOVEL COMPOUNDS USEFUL FOR THE TREATMENT OF DEGENERATIVE AND INFLAMMATORY DISEASES” (priority 2012, published 2013).
